The text below walks through data of patent US7109244B2, “Compositions and methods comprising long-chain, straight-chain 2-amino-3-hydroxyalkanes” (priority 1997, dated 2006).

Data set [1] deals with L1210 murine lymphocytic leukemia cells. The experiment in a line: L1210 morphological change (pointed cells). It counts as cell-based. As to conditions: for % Pointed Cells 1st: 27 h. On the procedure: Referring to FIG. 1, in the L1210 assay some of the cells changed from being spherical (FIG. 1A) to ovoid with long points approximately […] apart (FIG. 1B). Several other forms have also been observed in assays of these extracts, including cells with points not […] apart (FIG. 1C), cells with more than two points (FIG. 1D), cells with a bulge (FIG. 1E) and cells with a bulge replacing one of the points (FIG. 1F). However, the form with two sharp, opposing points was by far the predominant and characteristic one observed. This type of morphological change had not previously been observed during the screening of over 1000 marine extracts.
As discussed above, the spisulosines caused a distinct morphological change in L1210 leukemia cells, in addition to cytotoxicity. This bioactivity, which was recorded as the percentage of living cells in which altered morphology was observed, could be observed sometimes as early as 13 h after the start of the assay and reached a maximum at 50–60 h, after which it decreased. […] The morphological effect was usually measured 30–35 h after the start of the assay and again about 24 h later, while the cytotoxicity was determined when the number of cells in the controls reached approximately 8000, usually in 3 days after the assay was begun. It should be noted that the pointed cells were live cells and that they were counted as such for the cytotoxicity reading. Also, assays in which 100% cytotoxicity was recorded may still have contained live cells (<0.5%) which may or may not have been pointed. All morphologically-changed cells were counted in the pointed cell percentage.
Morphologically-changed cells (FIGS. 1A–1F) were counted as living cells when determining the percent inhibition of growth. Morphological changes were assessed throughout the assay period. The percentage of pointed cells was determined by counting the number of altered cells in approximately 60 living cells. This percentage varied with the length of time the assay had been running. It generally reached its maximum about 50 hours after the start of the assay, but pointed cells could be observed as early as 13 hours after the start of the assay and could usually still be seen when the percent growth inhibition was measured. The percentages of pointed cells were often counted both after about 35 and after 55 hours. The time that this measurement was made is indicated with the data.

The test system is the same in data set [2]. The data set can be described thus: L1210 cytotoxicity assay (inhibition of growth). In kind it is cell-based. The procedure:
The morphological effect was usually measured 30–35 h after the start of the assay and again about 24 h later, while the cytotoxicity was determined when the number of cells in the controls reached approximately 8000, usually in 3 days after the assay was begun. It should be noted that the pointed cells were live cells and that they were counted as such for the cytotoxicity reading. […] All morphologically-changed cells were counted in the pointed cell percentage.
Cytotoxicity assays against L1210 murine lymphocytic leukemia cells were performed by dissolving the samples in methanol and/or hexane were applied to the dry assay wells and the solvent was allowed to evaporate. Cells (1000) were added in minimum essential medium (MEM, 1 ml) and incubated 37° C. Inhibition of growth was recorded as the estimated percentage of living cells in sample wells versus that in control wells.

In another data set the test system is protein kinase C. As to conditions: competing with diacylglycerol for the binding site; cited from earlier work.
Data set [3] has as its system Chinese hamster ovary (CHO) cells. As to conditions: cited from earlier work.
The subject of the next data set is HL-60 cells. The conditions noted are these: cells treated with phorbol 12-myristate-13-acetate; cited from earlier work.
A further data set concerns Vero cells. The experiment in a line: effect of LPA on the action of spisulosine 285 in Vero cells (Example D). In kind it is cell-based. From the text: LPA is known to increase the level of stress fibers in cells by activation of the Rho protein. The effect of LPA on cells treated with spisulosine 285, and untreated cells was examined. […]
Data set [4] deals with Gram-positive and Gram-negative bacteria and fungi. As to conditions: cited from earlier work.
Data set [5] has as its system Nippostrongylus brasiliensis. The conditions noted are these: cited from earlier work.

Read-outs that look alike come from different tables or passages of the source.

Take `CCCCCCCCCCCCCCC[C@H](O)[C@H](C)N` [Compound 154, (2S,3S)-2-amino-3-octadecanol]: the “% Pointed Cells 1st” value in data set [1] (0.1 μg/ml), in data set [1] (0.5 μg/ml), in data set [1] (1 μg/ml) and in data set [1] (5 μg/ml) was 0% throughout. The inhibition at 0.1 µg/mL in data set [2] (Mus musculus, L1210, 0.1 μg/ml, read-out: % Inhibitiion) turned out to be 0%. The inhibition at […] in data set [2] (Mus musculus, L1210, 0.25 μg/ml, read-out: % Inhibitiion) is 0%; in data set [2] (Mus musculus, L1210, 2.5 μg/ml, read-out: % Inhibitiion), 100%. Besides, in data set [2] (Mus musculus, L1210, 0.5 μg/ml, read-out: % Inhibitiion), the inhibition at 0.5 µg/mL is 0%. Besides, the inhibition at 1 µg/mL in data set [2] (Mus musculus, L1210, 1 μg/ml, read-out: % Inhibitiion) was determined as 63%. The inhibition at 5 µg/mL in data set [2] (Mus musculus, L1210, 5 μg/ml, read-out: % Inhibitiion) stood at 100%.

For `CCCCCCCCCCCCC/C=C/[C@@H](O)[C@@H](N)CO` (relative stereo) [sphingosine, D-trans-erythro-sphingosine, reference compound], in the data set on protein kinase C, the “inhibition of protein kinase C” value was “potent inhibitor”. The cytotoxicity result in data set [3] was “cytotoxic”. Further, the “L1210 morphological alteration / pointed cell activity (in words)” value in data set [1] is reported as “no morphological effect”. Also, the “% Pointed cells” value in data set [1] (0.1 μg/ml), in data set [1] (0.5 μg/ml), in data set [1] (1 μg/ml) and in data set [1] (5 μg/ml) was 0% in each case. For the same compound, the “L1210 cytotoxicity (in words)” value in data set [2] is reported as “moderate cytotoxicity”. For the same compound, the “% Inhibition” value in data set [2] (0.1 μg/ml) came to 0%; in data set [2] (0.5 μg/ml), 31%; in data set [2] (1 μg/ml) it was 75%; in data set [2] (5 μg/ml), 100%. Besides, the “differentiation of HL-60 cells” value with HL-60 cells is “inhibit the differentiation”.

In the case of Lysophosphatidic acid [LPA], the “effect of LPA added prior to spisulosine on morphology” value with Vero cells (10 mM LPA 2 hours, then 0.5 mM spisulosine 285 for 18 hours) was “prevents the morphological change promoted by spisulosine”. Further, the level of actin result with Vero cells (10 mM LPA, 2 hours) is given as “increasing the level of actin”.

On to `CCCCCCCCCCCCCCCCCCN` [Compound 131, stearylamine, reference compound], for which the cytotoxicity result in data set [3] is reported as “cytotoxic”. Besides, the “L1210 morphological alteration / pointed cell activity (in words)” value in data set [1] is listed as “no morphological effect”. Also, the “% Pointed cells” value in data set [1] (0.1 μg/ml), in data set [1] (0.5 μg/ml), in data set [1] (1 μg/ml) and in data set [1] (5 μg/ml) was 0% throughout. In data set [2], the “L1210 cytotoxicity (in words)” value is reported as “moderate cytotoxicity”. In addition, the inhibition at 0.1 µg/mL in data set [2] (Mus musculus, L1210, 0.1 μg/ml, read-out: % Inhibition) was 0%. The inhibition at […] in data set [2] (Mus musculus, L1210, 0.25 μg/ml, read-out: % Inhibition) came to 0%; in data set [2] (Mus musculus, L1210, 2.5 μg/ml, read-out: % Inhibition), 96%. The inhibition at 0.5 µg/mL in data set [2] (Mus musculus, L1210, 0.5 μg/ml, read-out: % Inhibition) was 0%. The inhibition at 1 µg/mL in data set [2] (Mus musculus, L1210, 1 μg/ml, read-out: % Inhibition) came out at 19%. In data set [2] (Mus musculus, L1210, 5 μg/ml, read-out: % Inhibition), the inhibition at 5 µg/mL was 99%.

For the compound `C=CCCCCCCCCCC(O)C(C)N` (centres unmarked) [Xestaminol A], in data set [4], the “activity against bacteria and fungi” value was “weak activity”. Moreover, the antihelminthic activity entry in data set [5] was “antihelminthic activity”.

As to `CCCCCCCCCCCCCCC[C@@H](O)[C@@H](N)CO` [Compound 164, dihydrosphingosine], the cytotoxicity result in data set [3] is “did not affect the cytotoxicity”.

As for `CCCCCCCCCCCCC/C=C/[C@@H](O)[C@@H](N)COP(=O)(O)OCC[N+](C)(C)C` [Compound 163, reference compound], the “% Pointed cells” value in data set [1] (10 μg/ml), in data set [1] (25 μg/ml) and in data set [1] (50 μg/ml) was 0% throughout. For the same compound, the inhibition at 10 µg/mL in data set [2] (Mus musculus, L1210, 10 μg/ml) amounted to 38%. In data set [2] (Mus musculus, L1210, 25 μg/ml), this compound displayed an inhibition at 25 µg/mL of 50%. In addition, in data set [2] (Mus musculus, L1210, 50 μg/ml), the inhibition at 50 µg/mL was found to be 88%.
